Test results from ChEMBL document CHEMBL1201862, “PubChem BioAssay data set” (2004).
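1) Cells in 96-well plates. 2) Compound, 48 h, 5 concentrations. 3) Linear interpolation between surrounding doses. 4) Unreached endpoint = highest concentration. GI50: concentration for 50% inhibition of growth.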 The source made the active and inactive calls. Rule as the data show it: active = GI50 up to about 1.1 µM and inactive = higher.

What was measured:
Assay in all cases: NCI tumour cell line growth inhibition, 48 h
SK-MEL-28 = tested on: SK-MEL-28
SK-OV-3 = tested on: SK-OV-3
K562 = tested on: K562
OVCAR-3 = tested on: OVCAR-3
OVCAR-5 = tested on: OVCAR-5
SK-MEL-5 = tested on: SK-MEL-5
M14 = tested on: M14
SF-268 = tested on: SF-268
UACC-257 = tested on: UACC-257
NCI-H23 = tested on: NCI-H23
HL-60 = tested on: HL-60
IGROV-1 = tested on: IGROV-1
LOX IMVI = tested on: LOX IMVI
HT-29 = tested on: HT-29
COLO 205 = tested on: COLO 205
HOP-92 = tested on: HOP-92

Structure (SMILES)	GI50 (SK-MEL-28)	GI50 (SK-OV-3)	GI50 (K562)	GI50 (OVCAR-3)	GI50 (OVCAR-5)	GI50 (SK-MEL-5)	GI50 (M14)	GI50 (SF-268)	GI50 (UACC-257)	GI50 (NCI-H23)	GI50 (HL-60)	GI50 (IGROV-1)	GI50 (LOX IMVI)	GI50 (HT-29)	GI50 (COLO 205)	GI50 (HOP-92)
N/N=C(/C(=O)Nc1cccc(Cl)c1)C(C(=O)c1ccc(O)cc1O)C1OC(=O)c2ccccc21 (centres undefined)	> 100 µM (inactive)	> 100 µM (inactive)	> 100 µM (inactive)	> 100 µM (inactive)	> 100 µM (inactive)	> 100 µM (inactive)	> 100 µM (inactive)	51.4 µM (inactive)	> 100 µM (inactive)	65.5 µM (inactive)	> 100 µM (inactive)	> 100 µM (inactive)	87.7 µM (inactive)	> 100 µM (inactive)	> 100 µM (inactive)	–
Cc1cc(O)nc(NNC(C#N)c2c(O)ccc3ccccc23)n1 (centres undefined)	5.18 µM (inactive)	7.08 µM (inactive)	3.68 µM (inactive)	1.78 µM (inactive)	16.7 µM (inactive)	2.99 µM (inactive)	2.51 µM (inactive)	2.28 µM (inactive)	3.64 µM (inactive)	3.56 µM (inactive)	0.966 µM (active)	3.4 µM (inactive)	4.08 µM (inactive)	17.3 µM (inactive)	22.4 µM (inactive)	19.1 µM (inactive)
COc1ccc(CNc2cc(OC)c(OC)c(OC)c2)cc1	2.94 µM (inactive)	5.65 µM (inactive)	2.18 µM (inactive)	3.14 µM (inactive)	> 25.3 µM (inactive)	3.35 µM (inactive)	6.82 µM (inactive)	3.43 µM (inactive)	7.21 µM (inactive)	6.08 µM (inactive)	2.67 µM (inactive)	5.89 µM (inactive)	5.94 µM (inactive)	3.66 µM (inactive)	2.84 µM (inactive)	7.48 µM (inactive)
O=C(NC12CC3CC(CC(C3)C1)C2)C(=O)c1c[nH]c2ccccc12	16.3 µM (inactive)	16 µM (inactive)	5.77 µM (inactive)	17 µM (inactive)	17.9 µM (inactive)	15.4 µM (inactive)	14 µM (inactive)	16.6 µM (inactive)	12.9 µM (inactive)	14.7 µM (inactive)	15.5 µM (inactive)	15.8 µM (inactive)	13.1 µM (inactive)	2.83 µM (inactive)	18.7 µM (inactive)	15.1 µM (inactive)
Cc1cc2occ(C)c(=O)c2c2c1OC(C)(C)S2	> 100 µM (inactive)	> 100 µM (inactive)	51.9 µM (inactive)	> 100 µM (inactive)	> 100 µM (inactive)	> 100 µM (inactive)	> 100 µM (inactive)	> 100 µM (inactive)	> 100 µM (inactive)	> 100 µM (inactive)	38.1 µM (inactive)	> 100 µM (inactive)	> 100 µM (inactive)	97.9 µM (inactive)	> 100 µM (inactive)	55.3 µM (inactive)
CCOC(=O)CC(NC(=O)c1nc[nH]c1[N+](=O)[O-])C(=O)OCC (centres undefined)	> 100 µM (inactive)	> 100 µM (inactive)	38.2 µM (inactive)	38.6 µM (inactive)	–	56 µM (inactive)	67.8 µM (inactive)	40.6 µM (inactive)	34.1 µM (inactive)	22.6 µM (inactive)	> 10 µM (inactive)	40.5 µM (inactive)	60.1 µM (inactive)	40.4 µM (inactive)	49.2 µM (inactive)	–
COc1cc2c(c(OC)c1OC)-c1ccc(SC)c(=O)cc1[C@@H](NCc1cccc(C#N)c1)CC2	0.0221 µM (active)	0.0115 µM (active)	0.0361 µM (active)	0.0168 µM (active)	0.037 µM (active)	0.00693 µM (active)	0.0188 µM (active)	0.0164 µM (active)	0.0448 µM (active)	0.0179 µM (active)	0.0419 µM (active)	0.057 µM (active)	0.0184 µM (active)	0.0154 µM (active)	0.0202 µM (active)	0.0401 µM (active)
COc1ccc2c(=O)c([Se]c3coc4cc(OC)ccc4c3=O)coc2c1	52.1 µM (inactive)	> 100 µM (inactive)	> 100 µM (inactive)	> 100 µM (inactive)	> 100 µM (inactive)	> 100 µM (inactive)	18.3 µM (inactive)	> 100 µM (inactive)	> 100 µM (inactive)	34.9 µM (inactive)	40.4 µM (inactive)	34.4 µM (inactive)	> 100 µM (inactive)	> 100 µM (inactive)	> 100 µM (inactive)	> 100 µM (inactive)
CCOC(=O)C1Cc2ccc3c4c(ccc(c24)C1)CC(C(=O)OCC)C3	> 100 µM (inactive)	> 100 µM (inactive)	> 100 µM (inactive)	> 100 µM (inactive)	> 100 µM (inactive)	> 100 µM (inactive)	> 100 µM (inactive)	> 100 µM (inactive)	> 100 µM (inactive)	> 100 µM (inactive)	> 100 µM (inactive)	> 100 µM (inactive)	> 100 µM (inactive)	> 100 µM (inactive)	> 100 µM (inactive)	> 100 µM (inactive)
O=C1CCN2CCC(=O)c3c2c(cc2ccccc32)N1	–	> 100 µM (inactive)	> 100 µM (inactive)	> 100 µM (inactive)	> 100 µM (inactive)	> 100 µM (inactive)	> 100 µM (inactive)	> 100 µM (inactive)	> 100 µM (inactive)	–	–	> 100 µM (inactive)	> 100 µM (inactive)	> 100 µM (inactive)	> 100 µM (inactive)	–
CCOC(=O)[C@H]1Nc2ccc([N+](=O)[O-])cc2C2c3ccccc3CC21 (some centres undefined)	12.1 µM (inactive)	–	3.89 µM (inactive)	9.84 µM (inactive)	16.6 µM (inactive)	13.1 µM (inactive)	15.2 µM (inactive)	16.5 µM (inactive)	18.7 µM (inactive)	15.3 µM (inactive)	–	28 µM (inactive)	17.9 µM (inactive)	16 µM (inactive)	30.9 µM (inactive)	–
CC1=C(SC#N)S(=O)(=O)N(c2ccccc2)C(C)=C1SC#N	61.9 µM (inactive)	38.2 µM (inactive)	21 µM (inactive)	> 10 µM (inactive)	39.4 µM (inactive)	42 µM (inactive)	> 10 µM (inactive)	69.2 µM (inactive)	32 µM (inactive)	48.2 µM (inactive)	29 µM (inactive)	6.56 µM (inactive)	12.9 µM (inactive)	> 100 µM (inactive)	–	3.63 µM (inactive)
CCOC(=O)c1nc(-c2ccccc2)oc1OCC	> 100 µM (inactive)	> 100 µM (inactive)	74.1 µM (inactive)	> 100 µM (inactive)	–	> 100 µM (inactive)	> 100 µM (inactive)	> 100 µM (inactive)	–	> 100 µM (inactive)	49.9 µM (inactive)	> 100 µM (inactive)	36.8 µM (inactive)	> 100 µM (inactive)	> 100 µM (inactive)	–
